Experimental data taken from US9328088B2, “Luminescent probes for biological labeling and imaging, and process for preparing the same” (CENTRE NATIONAL DE LA RECHERCHE SCIENTIFIQUE, priority 2011, dated 2016).
“And” between values parts separate entries of the source, which are not always exact repeats. Identical values can stand only once.

Assays:
Type in all cases: physicochemical
[1] = Stability of the terbium complexes in various buffers (luminescence half-life τ)
From the text: By way of example, the stability of the terbium complexes synthesized from ligands (I-1) to (I-4) in accordance with the invention in various buffers is given in Table 2 below. By way of comparison, Table 2 also gives the stability of a terbium complex TbL4 of the prior art corresponding to the following formula: […]

[2] = Absorption properties of the terbium complexes; details: 0.01M TRIS/HCl buffer at pH = 7.0
From the text: By way of example, all of the absorption and emission properties of the terbium complexes synthesized from ligands (I-1) to (I-4) in accordance with the invention are summarized in Table 1 below: […]

[3] = Emission properties: luminescence half-life τ and luminescence quantum yield φ in H2O and D2O; details: for Emission τ (luminescence half-life): error estimated ±5%; for Emission φ (luminescence quantum yield): error estimated ±15%
From the text: The complexes according to the invention have varied applications, depending on the nature of the substituents of the pyridyl group of the ligand.
By way of example, all of the absorption and emission properties of the terbium complexes synthesized from ligands (I-1) to (I-4) in accordance with the invention are summarized in Table 1 below:
The parameters φ and τ represent, respectively, the luminescence quantum yields and the luminescence half-lives. They may be measured in water and in D2O.

Compound	τ ([1]; H2O, estimated error ±5%)	τ ([1]; Phosphate 0.1M, pH = 7.0)	τ ([1]; Tris 50 mM-Serum 50%, pH = 7.0)	τ ([1]; Tris 0.1M, pH = 7.0)	τ ([1]; Tris 0.1M-EDTA 10 mM, pH = 7.0)	τ ([1]; Tris 0.1M-KF 400 mM, pH = 7.0)	Absorption λabs [2]	quantum yields [3]	Emission τ (luminescence half-life) ([3]; D2O)	Emission φ (luminescence quantum yield) ([3]; D2O)	Emission τ (luminescence half-life) ([3]; H2O)	Emission φ (luminescence quantum yield) ([3]; H2O)
CCOP(=O)([O-])CN(CC(=O)[O-])Cc1ccn(-c2cc(C#Cc3cc(OCCOC)c(C(=O)NCCCC(=O)[O-])cc3OCCOC)cc(-n3ccc(CN(CC(=O)[O-])CP(=O)([O-])OCC)n3)n2)n1.[Na+].[Na+].[Na+].[Na+].[Na+].[Tb+3] [Tb(I-5)]	2.6 ms	2.6 ms	2.5 ms	2.6 ms	2.6 ms	2.5 ms	283 nm and 328 nm	virtually quantitative	0.0031 s	96%	0.0026 s	88%
CCOP(=O)([O-])CN(CC(=O)[O-])Cc1ccn(-c2cc(C#Cc3cc(OCCOC)c(C#CCCCCC(=O)[O-])cc3OCCOC)cc(-n3ccc(CN(CC(=O)[O-])CP(=O)([O-])OCC)n3)n2)n1.[Na+].[Na+].[Na+].[Na+].[Na+].[Tb+3] [Tb(I-6)]	2.6 ms	2.6 ms	2.3 ms	2.4 ms	2.5 ms	2.3 ms	275 nm and 328 nm	–	0.0032 s	35%	0.0026 s	26%
CCOP(=O)([O-])CN(Cc1ccn(-c2cc(C#Cc3cc(OCCOC)c(C#CCCCCC(=O)[O-])cc3OCCOC)cc(-n3ccc(CN(CP(=O)([O-])OCC)CP(=O)([O-])OCC)n3)n2)n1)CP(=O)([O-])OCC.[Na+].[Na+].[Na+].[Na+].[Na+].[Tb+3] [Tb(I-8)]	3.2 ms	3.2 ms	3.0 ms	3.1 ms	3.1 ms	3.0 ms	272 nm and 327 nm	–	0.0035 s	30%	0.0032 s	26%
